Data taken from patent publication US9550772B2, “Azaindole derivatives as multi kinase inhibitors” (ORIBASE PHARMA, priority 2012, dated 2017).
Read-outs that look alike come from different tables or passages of the source.

Columns and labels:
HUVEC cells = assay: In vitro cell proliferation assay (MTT); type: cell-based; details: Homo sapiens, 72 hr, read-out: EC50, anti-proliferative activity
Experimental: (§1) Cancer cell lines (5×10^3 cells per well) or HUVEC (1×10^4 cells per well) or HRMEC (1×10^4 cells per well) were distributed in 96-well plates and incubating in duplicate with escalating concentrations (10 nM to 3 μM) of compounds for 72 hr. Cell proliferation was measured using MTT (3[4,5-dimethylthiazol-2-yl]-2,5-diphenyltetrazolium bromide). The EC50 values were calculated from sigmoidal dose-response curves utilizing Prism 5.0 from Graph-Pad Software (GraphPad Software, La Jolla, Calif., USA), with values normalized to those of DMSO-treated control wells (0%) and 1% SDS control wells (100%).

HepG2 cell line = assay: In vitro cell proliferation assay (MTT); type: cell-based; details: Homo sapiens, HepG2, 72 hr, read-out: EC50, anti-proliferative activity
Experimental: as §1

HuCCT1 cell line = assay: In vitro cell proliferation assay (MTT); type: cell-based; details: Homo sapiens, HuCCT-1, HuCCT1, 72 hr, EC50 ≧ 1 μM, read-out: EC50, anti-proliferative activity
Experimental: as §1

EGFR (ErbB1) = molecular target: T1, EGFR (ErbB1) (Homo sapiens, UniProt P00533); assay: In vitro kinase assay (Z'-LYTE, Invitrogen); type: biochemical; details: compound at 100 nM, ATP Km apparent, read-out: % of inhibition of the kinase compared to the control
T1 construct: purchased Invitrogen
Experimental: (§2) The inhibitory activity of the compounds on 7 kinases (BRAF, EGFR (ErbB1), EGFR (ErbB1) T790M L858R, FGFR2, KDR (VEGFR2), PDGFRA (PDGFR alpha), SRC) was evaluated by Invitrogen using the Z′-LYTE® technology. Briefly, the Z′-LYTE® biochemical assay employs a fluorescence-based, coupled-enzyme format and is based on the differential sensitivity of phosphorylated and non-phosphorylated peptides to proteolytic cleavage. The peptide substrate is labeled with two fluorophores—one at each end—that make up a FRET pair. A ratiometric method, which calculates the ratio (the Emission Ratio) of donor emission to acceptor emission after excitation of the donor fluorophore at 400 nm, is used to quantitate reaction progress.
(§3) The compounds are screened in 1% DMSO (final) in the well. For 10 point titrations, 3-fold serial dilutions are conducted from the starting concentration. All Peptide/Kinase Mixtures are diluted to a 2× working concentration in the appropriate Kinase Buffer. All ATP Solutions are diluted to a 4× working concentration in Kinase Buffer (50 mM HEPES pH 7.5, 0.01% BRIJ-35, 10 mM MgCl2, 1 mM EGTA). ATP Km apparent is previously determined using a Z′-LYTE® assay.
(§4) Each compound was incubated at a concentration of 100 nM and the tables 21 to 27 summarize the results obtained showing the inhibitory power of a compound.

KDR (VEGFR2) = molecular target: T2, KDR (VEGFR2) (Homo sapiens, UniProt P35968); assay: In vitro kinase assay (Z'-LYTE, Invitrogen); type: biochemical; details: compound at 100 nM, ATP Km apparent, read-out: % of inhibition of the kinase compared to the control
T2 construct: purchased Invitrogen
Experimental: as §2, §3, §4

PDGFRA (PDGFR alpha) = molecular target: T3, PDGFRA (PDGFR alpha) (Homo sapiens, UniProt P16234); assay: In vitro kinase assay (Z'-LYTE, Invitrogen); type: biochemical; details: compound at 100 nM, ATP Km apparent, read-out: % of inhibition of the kinase compared to the control
T3 construct: purchased Invitrogen
Experimental: as §2, §3, §4

BRAF = molecular target: T4, BRAF (Homo sapiens, UniProt P15056); assay: In vitro kinase assay (Z'-LYTE, Invitrogen); type: biochemical; details: compound at 100 nM, ATP Km apparent, read-out: % of inhibition of the kinase compared to the control
T4 construct: purchased Invitrogen
Experimental: as §2, §3, §4

SRC = molecular target: T5, SRC (Homo sapiens, UniProt P12931); assay: In vitro kinase assay (Z'-LYTE, Invitrogen); type: biochemical; details: compound at 100 nM, ATP Km apparent, read-out: % of inhibition of the kinase compared to the control
T5 construct: purchased Invitrogen
Experimental: as §2, §3, §4

EGFR (ErbB1) T790M L858R = molecular target: T6, EGFR (ErbB1) T790M L858R (Homo sapiens, UniProt P00533, L858R/T790M); assay: In vitro kinase assay (Z'-LYTE, Invitrogen); type: biochemical; details: compound at 100 nM, ATP Km apparent, read-out: % of inhibition of the kinase compared to the control
T6 construct: purchased Invitrogen
Experimental: as §2, §3, §4

FGFR2 = molecular target: T7, FGFR2 (Homo sapiens, UniProt P21802); assay: In vitro kinase assay (Z'-LYTE, Invitrogen); type: biochemical; details: compound at 100 nM, ATP Km apparent, read-out: % of inhibition of the kinase compared to the control
T7 construct: purchased Invitrogen
Experimental: as §2, §3, §4

HeLa cell line = assay: In vitro cell proliferation assay (MTT); type: cell-based; details: Homo sapiens, 72 hr, read-out: EC50, anti-proliferative activity
Experimental: as §1

MDA-MB-231 cell line = assay: In vitro cell proliferation assay (MTT); type: cell-based; details: Homo sapiens, MDA-MB-231, 72 hr, read-out: EC50, anti-proliferative activity
Experimental: as §1

A549 cell line = assay: In vitro cell proliferation assay (MTT); type: cell-based; details: Homo sapiens, A549, 72 h, read-out: EC50, anti-proliferative activity
Experimental: as §1

T5 sequence (P12931 whole entry): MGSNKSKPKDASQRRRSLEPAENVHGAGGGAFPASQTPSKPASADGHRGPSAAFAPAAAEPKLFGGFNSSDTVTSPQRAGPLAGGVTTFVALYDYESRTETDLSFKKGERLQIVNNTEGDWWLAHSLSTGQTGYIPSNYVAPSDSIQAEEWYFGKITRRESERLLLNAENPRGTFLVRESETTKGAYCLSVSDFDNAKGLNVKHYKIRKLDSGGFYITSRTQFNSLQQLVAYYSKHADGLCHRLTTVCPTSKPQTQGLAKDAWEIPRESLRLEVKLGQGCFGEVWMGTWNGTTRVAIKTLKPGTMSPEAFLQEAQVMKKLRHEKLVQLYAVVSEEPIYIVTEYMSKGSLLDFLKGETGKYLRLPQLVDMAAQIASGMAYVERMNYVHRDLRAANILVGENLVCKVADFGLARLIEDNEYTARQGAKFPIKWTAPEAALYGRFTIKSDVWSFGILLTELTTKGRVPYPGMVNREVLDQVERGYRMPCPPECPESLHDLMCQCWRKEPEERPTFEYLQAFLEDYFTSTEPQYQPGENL
T7 sequence (P21802 22-821): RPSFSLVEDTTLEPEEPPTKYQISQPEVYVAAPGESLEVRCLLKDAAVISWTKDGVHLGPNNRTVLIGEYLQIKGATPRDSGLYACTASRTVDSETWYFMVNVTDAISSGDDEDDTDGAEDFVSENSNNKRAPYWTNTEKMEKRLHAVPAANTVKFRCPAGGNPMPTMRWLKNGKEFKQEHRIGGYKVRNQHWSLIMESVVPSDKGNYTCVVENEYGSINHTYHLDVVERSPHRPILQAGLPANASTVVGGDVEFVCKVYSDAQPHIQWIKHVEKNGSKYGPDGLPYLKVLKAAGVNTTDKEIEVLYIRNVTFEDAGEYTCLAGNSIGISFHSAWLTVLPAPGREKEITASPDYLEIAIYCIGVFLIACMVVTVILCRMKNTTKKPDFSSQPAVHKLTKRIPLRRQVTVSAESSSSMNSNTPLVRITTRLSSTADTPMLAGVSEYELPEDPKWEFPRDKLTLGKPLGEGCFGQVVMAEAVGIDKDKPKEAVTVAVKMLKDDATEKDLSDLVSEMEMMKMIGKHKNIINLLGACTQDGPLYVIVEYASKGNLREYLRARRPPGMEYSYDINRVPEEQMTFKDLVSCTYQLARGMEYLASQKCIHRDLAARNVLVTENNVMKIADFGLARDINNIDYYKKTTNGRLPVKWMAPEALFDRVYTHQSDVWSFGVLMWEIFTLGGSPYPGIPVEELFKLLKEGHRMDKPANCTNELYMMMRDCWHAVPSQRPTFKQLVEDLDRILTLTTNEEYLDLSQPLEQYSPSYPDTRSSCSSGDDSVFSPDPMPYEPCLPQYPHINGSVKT
T1 sequence (P00533 25-1210): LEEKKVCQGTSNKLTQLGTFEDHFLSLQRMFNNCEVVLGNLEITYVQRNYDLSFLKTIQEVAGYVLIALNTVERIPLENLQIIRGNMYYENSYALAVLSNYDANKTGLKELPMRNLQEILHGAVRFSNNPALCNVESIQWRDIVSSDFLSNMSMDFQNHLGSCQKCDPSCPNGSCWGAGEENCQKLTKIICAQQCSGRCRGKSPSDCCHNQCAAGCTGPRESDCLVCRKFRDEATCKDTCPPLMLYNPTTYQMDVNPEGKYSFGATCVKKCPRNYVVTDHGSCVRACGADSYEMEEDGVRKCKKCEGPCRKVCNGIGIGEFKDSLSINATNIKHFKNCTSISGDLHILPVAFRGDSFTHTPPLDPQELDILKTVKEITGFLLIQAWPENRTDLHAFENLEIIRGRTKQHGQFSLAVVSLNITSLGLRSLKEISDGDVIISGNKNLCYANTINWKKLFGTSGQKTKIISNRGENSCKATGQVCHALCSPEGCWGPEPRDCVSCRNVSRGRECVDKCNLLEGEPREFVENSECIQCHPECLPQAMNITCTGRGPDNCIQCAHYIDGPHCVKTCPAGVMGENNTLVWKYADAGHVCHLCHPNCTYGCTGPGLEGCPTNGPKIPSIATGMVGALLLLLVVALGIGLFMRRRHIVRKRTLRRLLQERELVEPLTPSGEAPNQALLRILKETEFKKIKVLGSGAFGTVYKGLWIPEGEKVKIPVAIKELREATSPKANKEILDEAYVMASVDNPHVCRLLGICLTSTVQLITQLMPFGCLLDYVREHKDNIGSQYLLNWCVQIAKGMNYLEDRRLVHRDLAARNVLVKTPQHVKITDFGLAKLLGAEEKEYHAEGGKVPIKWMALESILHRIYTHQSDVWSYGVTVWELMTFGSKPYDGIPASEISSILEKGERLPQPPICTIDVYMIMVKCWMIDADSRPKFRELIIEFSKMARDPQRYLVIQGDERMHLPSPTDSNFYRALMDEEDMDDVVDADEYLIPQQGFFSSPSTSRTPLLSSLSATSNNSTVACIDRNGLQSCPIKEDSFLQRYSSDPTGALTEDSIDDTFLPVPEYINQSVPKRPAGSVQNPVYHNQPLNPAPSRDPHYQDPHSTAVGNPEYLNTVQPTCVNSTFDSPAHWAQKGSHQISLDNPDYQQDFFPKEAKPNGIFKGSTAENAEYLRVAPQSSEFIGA
T2 sequence (P35968 20-1356): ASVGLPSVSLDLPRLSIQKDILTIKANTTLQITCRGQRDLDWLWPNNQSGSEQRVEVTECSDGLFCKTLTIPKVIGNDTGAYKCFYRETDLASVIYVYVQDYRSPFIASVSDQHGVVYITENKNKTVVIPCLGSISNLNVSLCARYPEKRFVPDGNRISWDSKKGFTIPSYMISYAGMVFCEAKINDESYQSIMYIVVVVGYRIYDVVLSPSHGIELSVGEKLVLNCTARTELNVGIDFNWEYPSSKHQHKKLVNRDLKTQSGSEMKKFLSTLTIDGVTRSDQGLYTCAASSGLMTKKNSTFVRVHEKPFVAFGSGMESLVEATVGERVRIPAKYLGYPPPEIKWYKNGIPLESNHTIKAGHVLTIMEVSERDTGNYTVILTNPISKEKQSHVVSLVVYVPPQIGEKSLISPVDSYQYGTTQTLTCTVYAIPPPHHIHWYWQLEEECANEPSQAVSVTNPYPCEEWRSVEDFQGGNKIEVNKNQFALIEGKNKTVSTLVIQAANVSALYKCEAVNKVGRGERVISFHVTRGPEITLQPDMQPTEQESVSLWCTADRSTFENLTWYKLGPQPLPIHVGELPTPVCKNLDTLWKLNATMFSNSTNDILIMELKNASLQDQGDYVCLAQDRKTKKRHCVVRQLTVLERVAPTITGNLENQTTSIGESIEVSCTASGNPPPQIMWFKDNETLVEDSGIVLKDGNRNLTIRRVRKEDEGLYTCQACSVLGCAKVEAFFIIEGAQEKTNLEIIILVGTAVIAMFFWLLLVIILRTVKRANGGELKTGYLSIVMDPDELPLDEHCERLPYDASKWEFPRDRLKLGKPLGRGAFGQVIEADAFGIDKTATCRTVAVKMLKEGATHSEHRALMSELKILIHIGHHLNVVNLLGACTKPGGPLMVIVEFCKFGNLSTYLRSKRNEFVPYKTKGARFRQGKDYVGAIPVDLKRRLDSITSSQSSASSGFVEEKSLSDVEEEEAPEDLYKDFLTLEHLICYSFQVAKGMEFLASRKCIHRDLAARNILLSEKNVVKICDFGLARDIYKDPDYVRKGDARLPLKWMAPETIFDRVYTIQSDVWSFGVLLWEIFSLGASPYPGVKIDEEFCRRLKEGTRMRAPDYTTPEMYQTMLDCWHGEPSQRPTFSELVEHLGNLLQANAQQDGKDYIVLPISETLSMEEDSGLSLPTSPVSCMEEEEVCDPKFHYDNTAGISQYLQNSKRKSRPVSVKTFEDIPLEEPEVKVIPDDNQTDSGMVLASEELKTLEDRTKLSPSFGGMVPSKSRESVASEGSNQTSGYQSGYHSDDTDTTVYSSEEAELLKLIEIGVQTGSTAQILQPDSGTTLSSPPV
T4 sequence (P15056 whole entry): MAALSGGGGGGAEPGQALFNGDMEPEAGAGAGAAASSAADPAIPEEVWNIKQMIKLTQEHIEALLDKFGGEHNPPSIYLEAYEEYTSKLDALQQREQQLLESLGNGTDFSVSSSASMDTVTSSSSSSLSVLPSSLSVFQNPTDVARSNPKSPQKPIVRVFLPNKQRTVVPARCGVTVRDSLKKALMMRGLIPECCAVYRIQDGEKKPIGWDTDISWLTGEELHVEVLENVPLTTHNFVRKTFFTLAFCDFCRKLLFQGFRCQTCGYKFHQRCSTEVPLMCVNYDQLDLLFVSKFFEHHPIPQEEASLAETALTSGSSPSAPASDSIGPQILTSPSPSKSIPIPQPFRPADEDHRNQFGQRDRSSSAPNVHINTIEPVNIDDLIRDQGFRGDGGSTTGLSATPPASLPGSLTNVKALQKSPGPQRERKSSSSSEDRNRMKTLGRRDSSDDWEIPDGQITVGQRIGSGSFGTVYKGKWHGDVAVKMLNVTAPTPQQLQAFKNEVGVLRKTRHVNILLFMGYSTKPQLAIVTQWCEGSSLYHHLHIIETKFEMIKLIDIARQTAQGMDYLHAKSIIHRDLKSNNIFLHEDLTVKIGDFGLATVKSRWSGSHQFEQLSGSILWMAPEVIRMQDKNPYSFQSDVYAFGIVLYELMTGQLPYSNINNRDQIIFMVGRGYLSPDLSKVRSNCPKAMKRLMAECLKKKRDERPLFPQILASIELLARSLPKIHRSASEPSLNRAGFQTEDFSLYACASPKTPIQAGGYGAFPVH

Structure (SMILES)	EC50 (HUVEC cells; EC50 ≧ 1 μM) [nM]	EC50 (HepG2 cell line; EC50 ≧ 1 μM) [nM]	EC50 (HuCCT1 cell line) [nM]	inhibition at 0.1 µM (EGFR (ErbB1)) [%]	inhibition at 0.1 µM (KDR (VEGFR2)) [%]	inhibition at 0.1 µM (PDGFRA (PDGFR alpha)) [%]	inhibition at 0.1 µM (BRAF) [%]	inhibition at 0.1 µM (SRC) [%]	inhibition at 0.1 µM (EGFR (ErbB1) T790M L858R) [%]	inhibition at 0.1 µM (FGFR2) [%]	EC50 (HeLa cell line; EC50 ≧ 1 μM) [nM]	EC50 (MDA-MB-231 cell line; EC50 ≧ 1 μM) [nM]	EC50 (A549 cell line; EC50 ≧ 1 μM) [nM]	EC50 (HepG2 cell line; 100 nM < EC50 < 1 μM) [nM]	EC50 (HUVEC cells; 100 nM < EC50 < 1 μM) [nM]	EC50 (HeLa cell line; 100 nM < EC50 < 1 μM) [nM]	EC50 (MDA-MB-231 cell line; 100 nM < EC50 < 1 μM) [nM]	EC50 (A549 cell line; 100 nM < EC50 < 1 μM) [nM]
Cc1nc(Nc2ncc(C(=O)Nc3c(C)cccc3Cl)s2)cc(N2CCN(CCO)CC2)n1 [Dasatinib, reference compound]	≥ 1000	≥ 1000	≥ 1000															
CC(=O)c1cc2cc(C(=O)Nc3cc(NC(=O)c4cc(-n5cnc(C)c5)cc(C(F)(F)F)c4)ccc3C)cnc2[nH]1 [OR0723, 2-Acetyl-1H-pyrrolo[2,3-b]pyridine-5-carboxylic acid {2-methyl-5-[3-(4-methyl-imidazol-1-yl)-5-trifluoromethyl-benzoylamino]-phenyl}-amide]				≥ 50	< 50	< 50	< 50	< 50	< 50	< 50								
CC(=O)c1cc2cc(C(=O)Nc3cc(NC(=O)c4ccc(CN5CCN(C)CC5)c(C(F)(F)F)c4)ccc3C)cnc2[nH]1 [OR0724, 2-Acetyl-1H-pyrrolo[2,3-b]pyridine-5-carboxylic acid {2-methyl-5-[4-(4-methyl-piperazin-1-ylmethyl)-3-trifluoromethyl-benzoylamino]-phenyl}-amide]				≥ 50	< 50	< 50	< 50	< 50	≥ 50	< 50								
CC(=O)c1cc2cc(CCc3cc(NC(=O)Cc4cccc(C(F)(F)F)c4)ccc3C)cnc2[nH]1 [OR0966, N-{3-[2-(2-Acetyl-1H-pyrrolo[2,3-b]pyridin-5-yl)-ethyl]-4-methyl-phenyl}-2-(3-trifluoromethyl-phenyl)-acetamide]	≥ 1000			< 50	< 50	< 50	≥ 50	< 50		< 50	≥ 1000	≥ 1000	≥ 1000	100 to 1000				
COC(=O)c1cc2cc(CCc3cccc(NC(=S)Cc4cccc(C(F)(F)F)c4)c3)cnc2[nH]1 [OR1014, 5-(2-{3-[2-(3-Trifluoromethyl-phenyl)-thioacetylamino]-phenyl}-ethyl)-1H-pyrrolo[2,3-b]pyridine-2-carboxylic acid methyl ester]		≥ 1000		< 50	< 50	< 50	< 50	< 50		< 50	≥ 1000	≥ 1000	≥ 1000		100 to 1000			
COC(=O)c1cc2cc(CCc3cc(NC(=O)C4CCC(C(F)(F)F)CC4)ccc3C)cnc2[nH]1 (stereo not shown) [OR1057, 5-(2-{2-Methyl-5-[(4-trifluoromethyl-cyclohexanecarbonyl)-amino]-phenyl)-ethyl)-1H-pyrrolo[2,3-b]pyridine-2-carboxylic acid methyl ester]	≥ 1000	≥ 1000		≥ 50	< 50	≥ 50	< 50	≥ 50		< 50	≥ 1000	≥ 1000	≥ 1000					
CC(=O)c1cc2cc(CCc3cc(NC(=O)c4cc(N5CCN(C)CC5)cc(C(F)(F)F)c4)ccc3C)cnc2[nH]1 [OR1059, N-{3-[2-(2-Acetyl-1H-pyrrolo[2,3-b]pyridin-5-yl)-ethyl]-4-methyl-phenyl}-3-(4-methyl-piperazin-1-yl)-5-trifluoromethyl-benzamide]	≥ 1000			≥ 50	≥ 50	≥ 50	≥ 50	≥ 50		≥ 50				100 to 1000		100 to 1000	100 to 1000	100 to 1000
COC(=O)c1cc2cc(CSc3cccc(NC(=O)c4cccc(C(F)(F)F)c4)c3)cnc2[nH]1 [OR1066, 5-[3-(3-Trifluoromethyl-benzoylamino)-phenylsulfanylmethyl]-1H-pyrrolo[2,3-b]pyridine-2-carboxylic acid methyl ester]	≥ 1000	≥ 1000		< 50	≥ 50	≥ 50	< 50	< 50		< 50	≥ 1000	≥ 1000	≥ 1000					
COC(=O)c1cc2cc(CCc3ccc(C)c(NC(=O)c4cc(-n5cnc(C)c5)cc(C(F)(F)F)c4)c3)cnc2[nH]1 [OR1068, 5-(2-{4-Methyl-3-[3-(4-methyl-imidazol-1-yl)-5-trifluoromethyl-benzoylamino]-phenyl}-ethyl)-1H-pyrrolo[2,3-b]pyridine-2-carboxylic acid methyl ester]		≥ 1000		≥ 50	≥ 50	≥ 50	< 50	≥ 50		≥ 50	≥ 1000	≥ 1000	≥ 1000		100 to 1000			
COC(=O)c1cc2cc(C=Nc3cc(NC(=O)c4ccc(CN5CCN(C)CC5)c(C(F)(F)F)c4)ccc3C)cnc2[nH]1 [OR1070, 5-({2-Methyl-5-[4-(4-methyl-piperazin-1-ylmethyl)-3-trifluoromethyl-benzoylamino]-phenylimino}-methyl)-1H-pyrrolo[2,3-b]pyridine-2-carboxylic acid methyl ester]	≥ 1000	≥ 1000		≥ 50	≥ 50	≥ 50	< 50	≥ 50		≥ 50	≥ 1000	≥ 1000	≥ 1000					
